Results: US20080275085A1, “Piperidine derivative and use thereof” (priority 2007, published 2008)
Counter-ions that a name gives are not always drawn.

Tests used:
substance P receptor = molecular target: T1, substance P receptor (Homo sapiens, UniProt P25103); assay: Radioligand receptor binding inhibitory activity (125I-BHSP binding, receptor from IM-9 cells); settings: receptor from human lymphoblast cells (IM-9); radioligand 125I-BHSP; 25° C., 30 min
T1 construct: The receptor was prepared from human lymphoblast cells (IM-9); endogenous in cells; host or cells: IM-9 human lymphoblast cells (membrane fraction, 100,000xG precipitate)
T1 sequence (P25103 whole entry): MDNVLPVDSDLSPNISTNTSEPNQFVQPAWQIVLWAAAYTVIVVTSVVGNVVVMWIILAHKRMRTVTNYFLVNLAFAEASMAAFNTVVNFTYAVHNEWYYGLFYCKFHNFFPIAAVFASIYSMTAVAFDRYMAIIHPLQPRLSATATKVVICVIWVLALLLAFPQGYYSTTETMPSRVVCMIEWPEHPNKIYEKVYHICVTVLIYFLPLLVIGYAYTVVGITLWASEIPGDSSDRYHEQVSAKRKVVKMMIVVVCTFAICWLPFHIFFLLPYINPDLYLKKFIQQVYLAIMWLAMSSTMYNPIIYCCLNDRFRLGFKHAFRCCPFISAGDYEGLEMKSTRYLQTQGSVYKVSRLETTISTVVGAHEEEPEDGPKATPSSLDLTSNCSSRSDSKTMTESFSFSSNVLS
Description: Radioligand Receptor Binding Inhibitory Activity (Binding Inhibitory Activity Using Receptor from Human Lymphoblast Cells (IM-9))
The method of M. A. Cascieri et al., “Molecular Pharmacology, vol. 42, p. 458 (1992)” was modified and used. The receptor was prepared from human lymphoblast cells (IM-9).
IM-9 cells (2×10^5 cells/mL) were inoculated and incubated for 3 days, which was then subjected to centrifugation for 10 min. at 500×G to give cell pellets. The obtained pellets were washed with PBS (GIBCO), disrupted in buffer A (50 mM tris.hydrochloric acid buffer (pH 7.4) containing 120 mM sodium chloride, 5 mM potassium chloride, 2 μg/mL chymostatin, 40 μg/mL bacitracin, 40 μg/mL APMSF, 1 mM ethylenediamine tetra acetic acid) using a polytron.homogenizer [manufactured by Kinematika, Germany], and centrifuged at 100,000×G for 40 min. The precipitated fraction was suspended in buffer B (50 mM Tris-HCl (pH 7.4), 0.02% bovine serum albumin, 2 μg/mL chymostatin, 40 μg/mL bacitracin, 40 μg/mL APMSF, 3 mM MgCl2), which was then cryopreserved (−80° C.) as a receptor specimen.
Buffer B (50 μL) was added to a 96 well microassay plate (CORNING). Thereto was added 50 μL of membrane preparation suspended in buffer B at 250 μg/mL. A measurement buffer (50 μL) containing 2% dimethyl sulfoxide was added to examine total binding; 4 μM unlabeled SP (50 μL) diluted with a measurement buffer containing 2% dimethyl sulfoxide was added to examine non-specific binding; and 50 μL of a test compound (containing 2% dimethyl sulfoxide) diluted with a measurement buffer was added to examine binding inhibitory activity of the test compound. In addition, […] ^125I-BHSP solution (50 μL) was added to each well.
After reaction at 25° C. for 30 min, the cells were rapidly filtered through a GF/C filter plate (PerkinElmer) using a cell harvester (manufactured by PerkinElmer) to quench the reaction, and washed 10 times with 250 μL of 50 mM tris-HCl buffer (pH 7.4) containing 0.02% bovine serum albumin. The GF/C filter plate was dried, MicroScinti 0 (20 μL) was added, and the radioactivity was measured with TopCount (manufactured by PerkinElmer). The GF/C filter plate was immersed in 0.3% polyethylene imine for one day before use.
Specific binding is a value obtained by subtracting nonspecific binding from total binding. The binding inhibitory activity of a test compound is shown by a ratio of a value obtained by subtracting a measurement value with addition of a test compound from the total binding, relative to specific binding.
The antagonistic activity of the compounds obtained in the Examples was determined as a concentration necessary for causing 50% inhibition (IC50 value) under the above-described conditions, and the results shown in Table 34 were obtained.
The radio ligand means substance P labeled with [^125I].

SMILES | melting point | IC50 (substance P receptor)
Cc1cc(F)ccc1[C@@H]1CN(C(C)(C)C(N)=O)CC[C@H]1C(=O)N(C)Cc1cc(C(F)(F)F)cc(C(F)(F)F)c1 (relative stereo) (as salt: hydrochloride) [Example 113, (3R*,4R*)-1-(2-amino-1,1-dimethyl-2-oxoethyl)-N-[3,5-bis(trifluoromethyl)benzyl]-3-(4-fluoro-2-methylphenyl)-N-methylpiperidine-4-carboxamide monohydrochloride] | 209 to 211 °C | 
Cc1cc(F)ccc1[C@H]1CN(S(C)(=O)=O)CC[C@@H]1C(=O)N(C)[C@@H](C)c1cc(C(F)(F)F)cc(C(F)(F)F)c1 [Example 179, (3S,4S)—N-{(1S)-1-[3,5-bis(trifluoromethyl)phenyl]ethyl}-3-(4-fluoro-2-methylphenyl)-N-methyl-1-(methylsulfonyl)piperidine-4-carboxamide] |  | 0.049 nM
Cc1ccccc1[C@H]1CN(C(=O)C2CCN(C(=O)[C@@H](C)O)CC2)CC[C@@H]1C(=O)N(C)Cc1cc(C(F)(F)F)cc(C(F)(F)F)c1 [Example 29, (3S,4S)—N-[3,5-bis(trifluoromethyl)benzyl]-1-({1-[(2R)-2-hydroxypropanoyl]piperidin-4-yl}carbonyl)-N-methyl-3-(2-methylphenyl)piperidine-4-carboxamide] |  | 0.023 nM
Cc1cc(F)ccc1[C@H]1CN(C(=O)c2cncnc2)CC[C@@H]1C(=O)N(C)[C@@H](C)c1cc(C(F)(F)F)cc(C(F)(F)F)c1 [Example 158, (3S,4S)—N-{(1S)-1-[3,5-bis(trifluoromethyl)phenyl]ethyl}-3-(4-fluoro-2-methylphenyl)-N-methyl-1-(pyrimidin-5-ylcarbonyl)piperidine-4-carboxamide] |  | 0.033 nM
Cc1cc(F)ccc1[C@H]1CN(C(=O)CN2C(=O)OC(C)(C)C2=O)CC[C@@H]1C(=O)N(C)[C@@H](C)c1cc(C(F)(F)F)cc(C(F)(F)F)c1 [Example 154, (3S,4S)—N-{(1S)-1-[3,5-bis(trifluoromethyl)phenyl]ethyl}-1-[(5,5-dimethyl-2,4-dioxo-1,3-oxazolidin-3-yl)acetyl]-3-(4-fluoro-2-methylphenyl)-N-methylpiperidine-4-carboxamide] |  | 0.097 nM
Cc1cc(F)ccc1[C@H]1CN(C(=O)C2CCN(C(=O)[C@H](C)O)CC2)CC[C@@H]1C(=O)N(C)Cc1cc(C(F)(F)F)cc(C(F)(F)F)c1 [Example 150, (3S,4S)—N-[3,5-bis(trifluoromethyl)benzyl]-3-(4-fluoro-2-methylphenyl)-1-({1-[(2S)-2-hydroxypropanoyl]piperidin-4-yl}carbonyl)-N-methylpiperidine-4-carboxamide] |  | 0.033 nM
Cc1cc(F)ccc1[C@@H]1CN(CC(N)=O)CC[C@H]1C(=O)N(C)Cc1cc(C(F)(F)F)cc(C(F)(F)F)c1 (relative stereo) [Example 112, (3R*,4R*)-1-(2-amino-2-oxoethyl)-N-[3,5-bis(trifluoromethyl)benzyl]-3-(4-fluoro-2-methylphenyl)-N-methylpiperidine-4-carboxamide monohydrochloride] |  | 0.038 nM
Cc1cc(F)ccc1[C@@H]1CN(CC(N)=O)CC[C@H]1C(=O)N(Cc1cc(C(F)(F)F)cc(C(F)(F)F)c1)C1CC1 (relative stereo) [Example 169, (3R*,4R*)-1-(2-amino-2-oxoethyl)-N-[3,5-bis(trifluoromethyl)benzyl]-N-cyclopropyl-3-(4-fluoro-2-methylphenyl)piperidine-4-carboxamide monohydrochloride] |  | 0.077 nM
Cc1cc(F)ccc1[C@@H]1CN(C(C)CO)CC[C@H]1C(=O)N(C)Cc1cc(C(F)(F)F)cc(C(F)(F)F)c1 (relative stereo) [Example 120, (3R*,4R*)—N-[3,5-bis(trifluoromethyl)benzyl]-3-(4-fluoro-2-methylphenyl)-1-(2-hydroxy-1-methylethyl)-N-methylpiperidine-4-carboxamide monohydrochloride] |  | 0.043 nM
